Data on two compounds can be found in publication PMC9821961, “Ring-Modified Histidine-Containing Cationic Short Peptides Exhibit Anticryptococcal Activity by Cellular Disruption” (Molecules, 2022).

The test system of data set [1] is C. glabrata. Nature of the data set: microbe, parasite or virus in culture. It counts as cell-based, Candida glabrata. As to conditions: 48 h. The gist of the method:
(§1)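 Growth inhibition was measured by broth microdilution. MIC and IC50 were calculated from optical density at 600 nm after 48 h at 30 °C for Candida and Cryptococcus (10^3 CFU/mL, RPMI 1640 or YPED) and after 24 h at 37 °C for the Gram-positive bacteria (10^5 CFU/mL, Mueller Hinton).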

For data set [2], the system named is C. krusei. Nature of the data set: microbe, parasite or virus in culture. As to conditions: 48 h. It counts as cell-based, Candida krusei. The gist of the method: as §1
The subject of data set [3] is E. faecalis. Nature of the data set: microbe, parasite or virus in culture. Format: cell-based, Enterococcus faecalis. As to conditions: 48 h.
For data set [4], the system named is S. aureus. Briefly: microbe, parasite or virus in culture. It counts as cell-based, Staphylococcus aureus. As to conditions: 48 h. The source says:
(§2) Microbial strains: Microbial strains were procured from National Culture Collection of Pathogenic Fungi (NCCPF) at the Postgraduate Institute of Medical Education & Research (PGIMER), Chandigarh and Microbial Type Culture Collection and Gene bank (MTCC) at the Institute of Microbial Technology (IMTECH), Chandigarh, India. Peptides were screened against five different strains of fungi: viz. Candida albicans (NCCPF400034), Candida glabrata (MTCC 3019), Candida parapsilosis (NCCPF 440002), Candida krusei (NCCPF 440002) and Cryptococcus neoformans (NCCPF250316), and five strains of bacteria: viz. Escherichia coli (MTCC 2961), Staphylococcus aureus (MTCC 3160), Enterococcus faecalis (MTCC 439), Streptococcus pyogenes (MTCC 442) and Pseudomonas aeruginosa (MTCC 3542).
(§3) Growth media: Antifungal susceptibility testing was carried out using standard broth microdilution assays as per the Clinical and Laboratory Standards Institute (CLSI) guidelines for fungi. RPMI 1640 (Sigma), yeast extract, peptone and dextrose (YPED, Himedia) were used as the incubation broths. The cells were diluted to a cell density of 10^3 colony forming unit (CFU/mL) and incubated at 30 °C for 48 h. Furthermore, Muller Hinton (Himedia) media was utilized for bacterial strains and antibacterial activity was evaluated per CLSI guidelines for bacteria. […] Amphotericin B (Himedia, India) and rifampicin (Himedia, India) were used as standard drugs for the evaluation of activity against all the fungal and bacterial strains, respectively.
(§4) The stock solutions of peptides (2 mg/mL) were prepared in DMSO. Specific amounts of peptide from stock solution were added to a 96-well microtiter plate containing 100 μL of growth media and then serially diluted two-fold. A further 100 μL of growth media containing microbial cells were added to each well and incubated at 30–37 °C for 24–48 h. The optical density (OD) was measured at 600 nm using a BioStack Ready (BioTek Instruments, Winooski, VT, USA) microplate reader to analyze microbial growth inhibition, and IC50 and MIC values were calculated. To visualize the growth and inhibition pattern, a solution of 3-(4,5-dimethylthiazol-2-yl)-2,5-diphenyltetrazolium bromide (MTT) in water was added to the plate and incubated for 2–3 h. MTT reacts with the mitochondrial dehydrogenases, which are present only in a viable cell, to give blue colored formazan crystals. Therefore, a darker color indicates a high number of viable cells; however, non-viable cells appear pale or colorless.

In data set [5] the test system is S. pyogens. Nature of the data set: microbe, parasite or virus in culture. Format: cell-based, Streptococcus pyogenes. As to conditions: 48 h.
Data set [6] concerns E. coli. Briefly: microbe, parasite or virus in culture. Format: cell-based, Escherichia coli. As to conditions: 48 h.
Excerpt: as §2, §3, §4

Data set [7] relates to P. aeruginosa. Nature of the data set: microbe, parasite or virus in culture. As to conditions: 48 h. Format: cell-based, Pseudomonas aeruginosa.
For data set [8], the system named is C. neoformans cells. Nature of the data set: Internal cell morphology analysis by TEM (HRTEM, STEM). As to conditions: at MIC, 12 h. Format: cell-based, Cryptococcus neoformans. Here is the method:
The samples were prepared in a similar manner to as mentioned in the procedure for SEM sample preparation, up until the dehydration of cells with increasing gradients of ethanol. The dehydrated samples were then embedded in resin which was prepared from an epoxy embedding medium kit (Sigma, 45359-1EA-F). Increasing gradients (10%, 20%, 30%, 50%, 70% and 90%) of resin were added to the samples followed by incubation for 1–2 h at room temperature after addition of each gradient. Undiluted resin (100%) was added to the sample and incubated for 24 h at 70 °C. Semi-thin and ultrathin sections were cut with an ultramicrotome (Ultramicotome Lecia EM UC6). The sections of samples were placed on a 3.05 mm diameter and 200 mesh copper grid and stained with uranyl acetate or lead acetate, before observation under the HRTEM (FEI Technai G2 F20, Eindhoven, The Netherlands) and analysis at 120 KV.

The test system of data set [9] is C. neoformans cells. Briefly: CLSM FITC-labeled peptide uptake assay. Format: cell-based, Cryptococcus neoformans. As to conditions: FITC-tagged peptide, 12 h. Here is the method: After incubation, cells were harvested by centrifugation at 2000× g for 10 min at 4 °C and suspended in PBS and mounted on a slide for visualization under a confocal microscope with excitation and emission wavelengths of 488 nm and 515 nm, respectively.

In data set [10] the test system is C. neoformans (ATCC350) cells. Briefly: CLSM DAPI uptake assay. It counts as cell-based, Cryptococcus neoformans. As to conditions: at MIC, 12 h, then DAPI. Here is the method: After incubation, treated and untreated cells were centrifuged at 2000× g for 10 min at 4 °C and suspended in cold PBS and followed by 2–3 washings with PBS. The cells were then incubated with DAPI (3.01 μM) for 10 min at room temperature with constant shaking, harvested by centrifugation and suspended in PBS. Then, the fungal cells were examined using confocal microscopy (Olympus Fluoview™ FV1000 SPD; Olympus, Tokyo, Japan) with excitation at 350 nm and emission at 470 nm.

The subject of data set [11] is HEK 293.
Description: (§5) The cells (50,000 cells/well) were seeded to the wells of the plate in Dulbecco’s Modified Eagle Medium (DMEM) supplemented with 10% fetal bovine serum at 37 °C overnight and incubated for 24 h to achieve confluency. Peptides at different concentrations of 50, 25, 12.5, 6.25, 3.12, 1.56 and 0.78 μg/mL were added to the cells in separate wells and incubated at 37 °C for 18 h. A further 20 µL MTT solution (5 mg/mL stock conc. in PBS) was added and the plate was incubated for another 3–4 h. To detect the viable cells that react with MTT to make formazan crystals, 120 μL of supernatant was removed and 100 μL DMSO was added to dissolve the crystals. Untreated cells and DMSO (10%) were used as negative and positive controls, respectively [37]. The percent viability of cells was calculated using equation:(2) % Cell viability=Av. Absorbance of treated cells/Av. Absorbance of control cells×100
The subject of data set [12] is Red blood cells (RBCs). As to conditions: for % Hemolysis HC10 / % Hemolysis HC50: red cells of human.
Description: Human blood in 10% citrate phosphate dextrose was obtained from Government Hospital, Chandigarh, India. Red blood cells (RBCs) were harvested by spinning at 1000× g for 5 min followed by washing with PBS 3–5 times. The packed cell volume was obtained and utilized to make a 0.8% (v/v) suspension of RBCs in PBS. […] The plate was incubated at 37 °C for 60 min followed by centrifugation at 1000× g for 5 min at 25 °C. The supernatant (100 μL) was transferred to a fresh microtiter plate and absorbance was recorded at 414 nm (Varioskan LUX multimode microplate reader, Thermo Scientific, Waltham, MS, USA) to analyze RBC lysis. Untreated RBCs in PBS and lysed RBCs in 0.1% Triton X-100 were used as negative and positive controls, respectively [29]. Percent hemolysis was calculated using following equation [38]. (3) % Hemolysis=Absorbance of treated sample−Absorbance of negative control/Absorbance of positive control−Absorbance of negative control×100
Data set [13] is described as follows: in vitro. As to conditions: human, HeLa cells.
Description: as §5
Data set [14] has as its system C. neoformans cells. Briefly: Time kill assay. As to conditions: time-kill profile over 24 h.

Molecules are shown by their SMILES. In brackets after ≈: the same amount, converted by molar mass.

A word on the IC50: it is the concentration needed to halve the response being measured. Lower therefore signals inhibition by little substance. For orientation: CC50 means the concentration giving 50% cytotoxicity. A low value points to harm at low concentration. As to `COC(=O)[C@H](Cc1ncn(Cc2ccccc2I)c1I)NC(=O)[C@@H](N)Cc1c[nH]c2ccccc12` [10o, Trp-His[1-(2-iodobenzyl)-5-iodo]-OMe], the concentration for half-maximal inhibition (IC50) is more than 35.2 µg/mL in [1]; more than 35.2 µg/mL in data set [2]; 17.6 µg/mL (≈ 25.2 µM) in data set [3]; more than 35.2 µg/mL in data set [4]; more than 35.2 µg/mL in data set [5]; more than 35.2 µg/mL in [6]. Further, in [7], the 50% inhibitory concentration (IC50) was more than 35.2 µg/mL. For the same compound, the MIC is more than 64.0 µg/mL in data set [1]; more than 64.0 µg/mL in data set [2]; 32.0 µg/mL (≈ 45.9 µM) in [3]; more than 64.0 µg/mL in [4]; more than 64.0 µg/mL in data set [5]; more than 64.0 µg/mL in data set [6]. In data set [7], this compound had an MIC of more than 64.0 µg/mL. For the same compound, the “Internal morphology of treated cells (HRTEM)” value in data set [8] is given as “cell membrane was completely damaged”. For the same compound, the “Morphology of treated cells (STEM)” value in data set [8] was “highly deformed and shrunken”. In addition, the “Fluorescence of cells incubated with FITC-labeled peptide (CLSM)” value in [9] is recorded as “prominent green fluorescence”. Also, in [10], the “DAPI fluorescence of treated cells (CLSM)” value is recorded as “fragmented bright blue fluorescence”. Moreover, the “Cytotoxic nature” value in data set [11] is recorded as “non-cytotoxic”. Also, the “Hemolytic behavior” value in data set [12] is “non-hemolytic”. Further, in data set [12], the “% Hemolysis HC10” value stood at 52.17 µg/mL. In addition, in data set [12], the “% Hemolysis HC50” value is more than 100 µg/mL. The same compound gave a 50% cytotoxic concentration (CC50) at 18 h in data set [13] of more than 100 µg/mL. The “Time after which growth/CFUs of cryptococcal cells dropped or were inhibited” value in data set [14] stood at 12 h.

On to `COC(=O)[C@H](Cc1ncn(Cc2cc(C(C)(C)C)cc(C(C)(C)C)c2)c1I)NC(=O)[C@@H](N)Cc1c[nH]c2ccccc12` [10d, Trp-His[1-(3,5-di-tert-butylbenzyl)-5-iodo]-OMe], for which the half-inhibitory concentration (IC50) in [1] is more than 35.2 µg/mL; in data set [2] it was more than 35.2 µg/mL; in data set [3], 17.6 µg/mL (≈ 25.7 µM); in [4], 17.6 µg/mL (≈ 25.7 µM); in data set [5], more than 35.2 µg/mL; in data set [6] it was 17.6 µg/mL (≈ 25.7 µM). The same compound had a half-inhibitory concentration (IC50) in data set [7] of more than 35.2 µg/mL. The MIC in data set [1] is more than 64.0 µg/mL; in data set [2], more than 64.0 µg/mL; in data set [3], 32.0 µg/mL (≈ 46.8 µM); in [4], 32.0 µg/mL (≈ 46.8 µM); in [5], more than 64.0 µg/mL; in data set [6] it was 32.0 µg/mL (≈ 46.8 µM). This compound came in with an MIC in data set [7] of more than 64.0 µg/mL. The “Internal morphology of treated cells (HRTEM)” value in data set [8] is “complete lysis of the cell membrane”. Besides, the “Morphology of treated cells (STEM)” value in data set [8] is “highly shrunken cells with irregular cell membranes”. In addition, the “Fluorescence of cells incubated with FITC-labeled peptide (CLSM)” value in data set [9] was “prominent green fluorescence”. Further, the “DAPI fluorescence of treated cells (CLSM)” value in [10] is listed as “fragmented bright blue fluorescence”. In addition, in data set [11], the “Cytotoxic nature” value is recorded as “non-cytotoxic”. Also, in data set [12], the “Hemolytic behavior” value was “non-hemolytic”. For the same compound, the “% Hemolysis HC10” value in data set [12] was 50.53 µg/mL. The “% Hemolysis HC50” value in data set [12] is more than 100 µg/mL. In addition, the CC50 at 18 h in data set [13] is more than 100 µg/mL. For the same compound, in data set [14], the “Time after which growth/CFUs of cryptococcal cells dropped or were inhibited” value turned out to be 12 h.
